Measured values published in patent publication US20160083424A1, “COMPOSITIONS AND METHODS FOR TARGETING ANTIGEN-PRESENTING CELLS” (OSLO UNIVERSITETSSYKEHUS HF, priority 2013, published 2016).
Blank lines part the entries; values can stand above or below the substance they belong to. Where no end group is shown, it is not given here. siRNA = not defined here

Experiments:
iDCs [1] = experiment: Phage binding by flow cytometry; set-up: species or system human; settings: binding of the phage clones to iDC, flow cytometry
Experimental: (§1) In brief, aliquots of DCs (10^5) were divided into conical 96-well micro-plate, washed with PBS buffer containing 1% FCS, and then incubated with the amplified phages (≈10^9 TU) for 30-60 min on ice. After washing, cells were incubated with biotinylated anti-M13 monoclonal antibody (Abcam) and then with phycoerythrin (PE)-conjugated streptavidin. Competition assays were performed by pre-incubating DCs with different amounts of the peptides for 15 min on ice. Then NW phage (≈10^9 TU) was added and samples incubated for additional 60 min on ice. After washing, bound phages were detected as indicated above. Samples were analyzed by FACSCanto II flow cytometry.

iDCs [2] = experiment: Peptide binding by flow cytometry; set-up: species or system human; settings: iDCs
Experimental: The cells were seeded onto 24-well plate (3×10^5/well/0.5 ml) in X-vivo 15 medium and incubated overnight at 37° C. Subsequently, they were incubated with 6IAF-conjugated peptides (5 μg/ml) for 30 min at 37° C., gently scraped, washed 3 times and then analyzed by flow cytometry. Binding was also performed at 4° C.

iDCs [3] = experiment: Binding and internalization of peptide-siRNA conjugates by microscopy; assay type: cell-based, human
Experimental: Then the medium was replaced with fresh medium and the cells were incubated with the peptides (5 μg/ml) for 60 min at 37° C. followed by 5 min incubation with Hoechst 33342 (Invitrogen Dynal AS, Oslo, Norway). The cells were washed twice with PBS and fixed with 4% paraformaldehyde for 15 min at 4° C. After washing, slides were covered with Dako cytomation fluorescent mounting medium and then images were taken with either epifluorescence (Leica DM RHC, Leica Microscopy As, Oslo, Norway) or confocal microscopy (Zeiss LSM 510, […]).
One of the major challenges to the clinical development of gene silencing by small interfering RNA (siRNA) is its effective delivery to target cells (Whitehead et al., Nat Rev Drug Discov 8, 129-138). Given the effective internalization of NW peptide by DCs, its potential to direct siRNAs to DCs was evaluated. First, a fluorescence labeled siRNA targeting mouse IL-10 was covalently conjugated to the NW-peptide (NW peptide with GGGSC (SEQ ID NO:43) linker) through a thiol linkage and then the binding of the conjugates to iDCs was investigated by epifluorescence microcopy. In contrast to free siRNA molecules, the peptide siRNA conjugates bound to DCs (FIG. 10A).

Monocytes = experiment: Competition of NW phage binding by NW peptide and its mutant peptides; set-up: species or system human
Experimental: as §1
To uncover the contribution of individual side chains and identify which amino acids are responsible for the NW peptide binding to monocytes and dendritic cells, alanine scanning was performed. Derivatives of the NW peptide were synthesized with exchange of each amino acid by alanine (FIG. 11A). These peptide derivatives were used to compete with the NW phage binding to monocytes. For each peptide, four concentrations were tested. Bound phage particles were detected with the use of biotin conjugated anti-M13 antibody and PE-conjugated streptavidin. The NW peptide (WT) competed effectively with the phage binding to monocytes with an IC50 of approximately 0.5 uM. The replacement of tryptophan (W) at position 2, 6, or 12 by a single alanine abolished the binding. Indeed, no significant competition with the phage binding was seen even at high peptide concentrations (C4=20 uM). Similarly, replacement of leucine (L) at position 4 or 7 by alanine inhibited the peptide binding (FIG. 11B).

Substance: GETRAPL [DC19]
Binding (iDCs [1]): +++ (binding <80%: +++)

Substance: NWYLPWLGTNDWAGILARNLVPMVATVQGQNLC [NW-33-mer, CMV pp65 peptide fused to NW peptide]
binding of 6IAF-conjugated pp65 fusion peptides to DCs (iDCs [2]): bound to iDCs

Substance: peptide siRNA conjugates: fluorescence labeled siRNA targeting mouse IL-10 covalently conjugated to NW peptide with GGGSC linker through a thiol linkage (NWYLPWLGTNDWGGGSC(siRNA); not fully specified; reading uncertain)
intracellular delivery of peptide-siRNA conjugates (iDCs [3]; confocal microscopy): confirmed the intracellular delivery
binding of peptide siRNA conjugates to DCs (iDCs [3]; epifluorescence microscopy, iDCs): bound to DCs

Substance: QLPRTAL [DC10]
Binding (iDCs [1]): +++ (binding <80%: +++)

reduction in IC50 relative to NW peptide (Monocytes; monocytes): approximately 20 fold
competition with NW phage binding / peptide binding to monocytes (Monocytes; mutant peptides, four concentrations (0.4, 2, 8, 20 μM)): reduced the binding
Substance: Deletion of N10D11: NW peptide with N10 and D11 deleted; likely NWYLPWLGTW (SEQ ID NO:38)

Binding (iDCs [1]): ++++ (Binding >80-100%: ++++)
Substance: QWELPWLMQPPL [DC6]
